Patent US10160767B2 (Institute of Pharmacology and Toxicology Academy of …, priority 2014, dated 2018)

How the values were obtained:
[1] = cited from earlier work
tumor cell A549 = experiment: Tumor cell inhibition, Cell Titer-Glo cell viability; format: cell-based; conditions: Homo sapiens, A549 cells, 72 h
Procedure: The activities of example compounds to tumor cell A549 were evaluated.
(§1) Experimental materials: DMEM high-glucose cell culture media (Hyclone Company), fetal calf serum (FBS) (Gibco Company), penicillin and streptomycin were purchased from North China Pharmaceutical Co., Ltd, phosphate buffer saline (PBS) was purchased from Gibco Company, Cell Titer-Glo® cell viability detection reagent was purchased from Promega Company, pancreatin and dimethylsulfoxide (DMSO) were products of Sigma Company. A549 cell line (human lung adenocarcinoma cell line) was purchased from ATCC.
(§2) The cells were inoculated on a 96-well plate with white wall and penetrative bottom (Costar) in amount of 5000 cells per well, cultured at condition of 37° C., 5% CO2 for 24 h. The compounds to be tested were dissolved with DMSO and diluted to 100 mM, to obtain mother liquids of the compounds.
(§3) DMEM culture solution containing 2% FBS was used to diluted the compounds, in which concentration gradients were 3, and concentration range was 100 μM to 3 nM. The compounds in various dilution degrees were added to the cultured cells on the 96-well plate, 100 μl per well. Culture was performed at 37° C., CO2 for 72 h, supernatant was discarded, and cell viability detection test was performed.
(§4) AfterCell Titer-Glo® reaction buffer solution was mixed with isometric substrate, the mixture was added to 96-well plate, 100 μl per well. Cell lysis was induced by horizontally shaking for 4 min. Reaction signal was stabilized by balancing at room temperature for 15 min. Chemiluminescence units in each well of the 96-well plate were detected by using chemiluminescence detector.
(§5) Inhibition rates at different dilution degrees of each compound were calculated according to chemiluminescence value of each well, and Origin 8.0 software was used for S-type curve fitting of each compound, and for calculating EC50 value.

[2] = tested on: multi-drug resistant tumor cell line MES-SA; experiment: Inhibition of drug-resistant tumor cell line, Cell Titer-Glo cell viability; therapeutic index against MRC5 cells; format: cell-based; conditions: Homo sapiens, 72 h
Procedure: The activity of example compounds to multi-drug resistant tumor cell line MES-SA was evaluated.
as §1, with “MES-SA” for “A549”, “uterine sarcoma” for “lung adenocarcinoma”, “ATCC. MRC5 cell (human embryonic lung fibroblast) was purchased from ATCC.” for “ATCC.”
as §2
as §3, with “0.046 μM.” for “3 nM.”
as §4
as §5, with “value. The ratio of EC50 value of compound for MRC5 cell to EC50 value of compound for MES-SA cell was used as therapeutic index for the compound.” for “value.”

[3] = Toxicity on rat primary hepatocytes (ATP detection); format: cell-based; conditions: SD, ATP detection reagent
Procedure: Experimental method: Liver lobes of SD rat were placed in sterilized plate, added with a suitable amount of liver cell cleaning solution (precooled at 4° C.), the liver was shredded and fibrous connective tissues were removed to form a liver cell suspension, screened with 200 mesh screen and placed in 50 ml centrifuge tube, centrifuged at 500 rpm for 1-2 min; the supernatant was removed, the precipitate was added with 20-30 ml of RPMI […] (precooled at 4° C.) and washed 3 times; isovolumetric liver cell suspension was taken and suspended in Percoll separating solution I, mixed by turning upside down, centrifuged at 4° C. and 800 rpm for 10 min, the supernatant was discarded, the liver cells were washed with PBS once (800 rpm, 5 min). The liver cell precipitate was added into liver cell culture fluid, resuspended and diluted to 10 ml, and a suitable amount thereof was taken for counting and survival rate was determined by using 0.4% trypan blue. The liver cells with survival rate of 90% or more were inoculated in a density of 2×10^3 on 96-well plate, 100 μl of RPMI 1640 culture medium was added to each well, culture was performed at 37° C., 5% CO2 for 24 h. The compounds were diluted with DMSO to desired concentrations and added to each well in an amount of 1 μl (final compound concentrations were usually initiated from 1000 μM, 10× gradient dilution, 6 gradients), and blank control was added with 1 μl of DMSO.
After the cells were cultured at 37° C., 5% CO2 for 24 h, 100 μl of ATP detection reagent was added, incubated under shock for 15 min. fluorescence values of wells were read by ELIASA. Cell survival rates for each example compounds were calculated, and then GIs values (concentrations of added compounds at which growth of 50% cells was inhibited) were calculated.

mTORC1 = mTORC1 (Homo sapiens, UniProt P42345); experiment: Inhibition of mTORC1 in A549 cells: phosphorylation of Thr389 of S6K1 by Western blot; format: cell-based; conditions: compound 20 μM with insulin 167 nM, 2 h, semi-quantitative
Text: Molecular mechanism of action of the example compounds in tumor cell A549.
Experimental materials: DMEM high-glucose cell culture media (Hyclone Company), fetal calf serum (FBS) (Gibco Company), penicillin and streptomycin were purchased from North China Pharmaceutical Co., Ltd, phosphate buffer saline (PBS) was purchased from Gibco Company, pancreatic enzyme and dimethylsulfoxide (DMSO) were products of Sigma Company. A549 cell line (human lung adenocarcinoma cell line) was purchased from ATCC. Mouse anti-human p-p70S6K(T389) monoclonal antibody was purchased from Cell Signaling Technology Company, mouse anti-human p70S6K monoclonal antibody was purchased from Cell Signaling Technology Company, mouse anti-human p-AKT (S473) monoclonal antibody was purchased from Cell Signaling Technology Company, mouse anti-human AKTmonoclonal antibody was purchased from Cell Signaling Technology Company. Horseradish peroxidase-labeled goat anti-mouse, goat anti-mouse monoclonal antibodies were purchased from Cell Signaling Technology Company. […]

[4] = tested on: metastatic soft-tissue or bone sarcomas; conditions: phase-III; cited from earlier work
[5] = Solubility test (Chinese Pharmacopoeia 2010, Part II); format: physicochemical; conditions: water, thermodynamic from solid
T cell proliferation = conditions: read-out: Median inhibitory concentration (IC50), T cell proliferation; cited from earlier work
[6] = tested on: renal cell carcinoma (RCC); conditions: early RCC patients; cited from earlier work

Row | SMILES | IC50 (tumor cell A549) | melting point | IC50 [2] | GI50 at 24 h [3] | other results
1 | CO[C@H]1C[C@@H]2CC[C@@H](C)[C@@](O)(O2)C(=O)C(=O)N2CCCC[C@H]2C(=O)O[C@H]([C@H](C)C[C@@H]2CC[C@@H](OCCO)[C@H](OC)C2)CC(=O)[C@H](C)/C=C(\C)[C@@H](O)[C@@H](OC)C(=O)[C@H](C)C[C@H](C)/C=C/C=C/C=C/1C [Everolimus, 42-O-(2-hydroxyethyl)-rapamycin] |  |  |  |  | Half-life ([1]; in human body): 16 to 19 h; Oral bioavailability ([1]; oral): 15%-30%
2 | CO[C@H]1C[C@@H]2CC[C@@H](C)[C@@](O)(O2)C(=O)C(=O)N2CCCC[C@H]2C(=O)O[C@H]([C@H](C)C[C@@H]2CC[C@@H](OC(=O)C[n+]3cccc(C)c3)[C@H](OC)C2)CC(=O)[C@H](C)/C=C(\C)[C@@H](O)[C@@H](OC)C(=O)[C@H](C)C[C@H](C)/C=C/C=C/C=C/1C.[Br-] [Example 11, 42-O-carbonylmethyl-(3-methyl-pyridine bromide salt-1-yl)-rapamycin] | 52.8 µM | 138 to 140 °C | < 0.046 µM | 71.8 µM | 
3 | CO[C@H]1C[C@@H]2CC[C@@H](C)[C@@](O)(O2)C(=O)C(=O)N2CCCC[C@H]2C(=O)O[C@H]([C@H](C)C[C@@H]2CC[C@@H](O)[C@H](OC)C2)CC(=O)[C@H](C)/C=C(\C)[C@@H](O)[C@@H](OC)C(=O)[C@H](C)C[C@H](C)/C=C/C=C/C=C/1C [Rapamycin, reference compound] | 49.4 µM |  | < 0.046 µM | 24.8 µM | Inhibition of mTORC1 (phosphorylation of Thr389 of S6K1) (mTORC1): could only inhibit mTORC1
4 | CO[C@H]1C[C@@H]2CC[C@@H](C)[C@@](O)(O2)C(=O)C(=O)N2CCCC[C@H]2C(=O)O[C@H]([C@H](C)C[C@@H]2CC[C@@H](OP(C)(C)=O)[C@H](OC)C2)CC(=O)[C@H](C)/C=C(\C)[C@@H](O)[C@@H](OC)C(=O)[C@H](C)C[C@H](C)/C=C/C=C/C=C/1C [Ridaforolimus] |  |  |  |  | Mortality risk reduction in comparison with placebo group [4]: 28%
5 | CO[C@H]1C[C@@H]2CC[C@@H](C)[C@@](O)(O2)C(=O)C(=O)N2CCCC[C@H]2C(=O)O[C@H]([C@H](C)C[C@@H]2CC[C@@H](OC(=O)C(C)(CO)CO)[C@H](OC)C2)CC(=O)[C@H](C)/C=C(\C)[C@@H](O)[C@@H](OC)C(=O)[C@H](C)C[C@H](C)/C=C/C=C/C=C/1C [Temsirolimus] |  |  |  |  | IC50 (T cell proliferation): 0.0008 µM; Extension of median survival time [6]: 3-6 months

More lines, main results first:

Row | IC50 (tumor cell A549) | melting point | SMILES | IC50 [2] | GI50 at 24 h [3] | other results
6 | 44.8 µM | 157 to 160 °C | CO[C@H]1C[C@@H]2CC[C@@H](C)[C@@](O)(O2)C(=O)C(=O)N2CCCC[C@H]2C(=O)O[C@H]([C@H](C)C[C@@H]2CC[C@@H](OC(=O)C[n+]3ccc(C)cc3)[C@H](OC)C2)CC(=O)[C@H](C)/C=C(\C)[C@@H](O)[C@@H](OC)C(=O)[C@H](C)C[C@H](C)/C=C/C=C/C=C/1C.[Br-] [Example 13, 42-O-carbonylmethyl-(4-methyl-pyridine bromide salt-1-yl)-rapamycin] | < 0.046 µM | 44.9 µM | 
7 | 40.8 µM | 145 to 148 °C | CO[C@H]1C[C@@H]2CC[C@@H](C)[C@@](O)(O2)C(=O)C(=O)N2CCCC[C@H]2C(=O)O[C@H]([C@H](C)C[C@@H]2CC[C@@H](O)[C@H](OC)C2)CC(=O)[C@H](C)/C=C(\C)[C@@H](OC(=O)C[n+]2ccc(C)cc2)[C@@H](OC)C(=O)[C@H](C)C[C@H](C)/C=C/C=C/C=C/1C.[Br-] [Example 17, 31-O-carbonylmethyl-(4-methyl-pyridine bromide salt-1-yl)-rapamycin] | < 0.046 µM | 54.3 µM | 
8 | 17.4 µM | 142 to 145 °C | CO[C@H]1C[C@@H]2CC[C@@H](C)[C@@](O)(O2)C(=O)C(=O)N2CCCC[C@H]2C(=O)O[C@H]([C@H](C)C[C@@H]2CC[C@@H](OC(=O)C[n+]3cscc3C)[C@H](OC)C2)CC(=O)[C@H](C)/C=C(\C)[C@@H](OC(=O)C[n+]2cscc2C)[C@@H](OC)C(=O)[C@H](C)C[C@H](C)/C=C/C=C/C=C/1C.[Br-].[Br-] [Example 1, 31,42-O-carbonylmethyl-(4-methyl-thiazole bromide salt-3-yl)-rapamycin] | < 0.046 µM |  | solubility [5]: 34.5 mg/mL
